Measured values from patent US20200054633A1 (priority 2017, published 2020).
Read-outs that look alike come from different tables or passages of the source.

Conditions: OST placebo, N=74
Text: This study followed a randomized, double-blind, placebo-controlled, parallel-group, multicenter design.
Analysis set for safety: Safety Set included all subjects who received at least 1 dose of study drug.

## O=C(O)[C@H]1C2CCC(CC2)[C@@H]1Nc1nc(-c2c[nH]c3ncc(F)cc23)ncc1F [Compound (1), Pimodivir]
300 mg
  Any Serious TEAE: 0
  Any Serious TEAE at least possibly related to study medication: 0
  Any Severe (Grade 3) TEAE: 2 (2.7%)
  Any TEAE: 32
  Any TEAE at least possibly related to study medication: 9
  Any TEAE leading to a temporary stop of study medication: 2
  Any TEAE leading to permanent stop of study medication: 7
  Any TEAE with fatal outcome: 0
  Grade 3 TEAE: Anaemia: 0
  Grade 3 TEAE: Balance disorder: 0
  Grade 3 TEAE: Blood and lymphatic system disorders: 0
  Grade 3 TEAE: Blood creatine phosphokinase increased: 0
  Grade 3 TEAE: Bronchitis: 1 (1.4%)
  Grade 3 TEAE: Constipation: 0
  Grade 3 TEAE: Diarrhoea: 0
  Grade 3 TEAE: Fatigue: 1 (1.4%)
  Grade 3 TEAE: Gastrointestinal disorders: 0
  Grade 3 TEAE: General disorders and administration site conditions: 1 (1.4%)
  Grade 3 TEAE: Hyperkalaemia: 0
  Grade 3 TEAE: Infections and infestations: 1 (1.4%)
  Grade 3 TEAE: Investigations: 0
  Grade 3 TEAE: Lymphopenia: 0
  Grade 3 TEAE: Metabolism and nutrition disorders: 0
  Grade 3 TEAE: Nausea: 0
  Grade 3 TEAE: Nervous system disorders: 1 (1.4%)
  Grade 3 TEAE: Neutropenia: 0
  Grade 3 TEAE: Neutrophil count decreased: 0
  Grade 3 TEAE: Protein urine present: 0
  Grade 3 TEAE: Syncope: 1 (1.4%)
  Grade 3 TEAE: Thrombocytopenia: 0
  Grade 3 TEAE: Vomiting: 0
  TEAE: Abdominal discomfort: 0 n (%)
  TEAE: Abdominal pain: 0 n (%)
  TEAE: Abdominal pain upper: 0 n (%)
  TEAE: Abdominal tenderness: 0 n (%)
  TEAE: Alanine aminotransferase increased: 1 n (%)
  TEAE: All events: 32 n (%)
  TEAE: Anaemia: 0 n (%)
  TEAE: Aphthous stomatitis: 0 n (%)
  TEAE: Aspartate aminotransferase increased: 1 n (%)
  TEAE: Atrioventricular block first degree: 0 n (%)
  TEAE: Back pain: 1 n (%)
  TEAE: Bacterial vaginosis: 0 n (%)
  TEAE: Balance disorder: 0 n (%)
  TEAE: Blood and lymphatic system disorders: 3 n (%)
  TEAE: Blood bicarbonate decreased: 0 n (%)
  TEAE: Blood bilirubin decreased: 0 n (%)
  TEAE: Blood bilirubin increased: 1 n (%)
  TEAE: Blood creatine phosphokinase increased: 2 n (%)
  TEAE: Blood creatinine increased: 1 n (%)
  TEAE: Blood glucose increased: 1 n (%)
  TEAE: Blood potassium increased: 0 n (%)
  TEAE: Blood pressure diastolic increased: 0 n (%)
  TEAE: Blood urine: 1 n (%)
  TEAE: Bradycardia: 0 n (%)
  TEAE: Bronchitis: 1 n (%)
  TEAE: Cardiac disorders: 1 n (%)
  TEAE: Constipation: 0 n (%)
  TEAE: Contusion: 0 n (%)
  TEAE: Cough: 0 n (%)
  TEAE: Decreased appetite: 0 n (%)
  TEAE: Dehydration: 0 n (%)
  TEAE: Diabetes mellitus: 1 n (%)
  TEAE: Diarrhoea: 5 n (%)
  TEAE: Dizziness: 0 n (%)
  TEAE: Dry mouth: 0 n (%)
  TEAE: Dry skin: 0 n (%)
  TEAE: Dysgeusia: 0 n (%)
  TEAE: Dyspepsia: 1 n (%)
  TEAE: Dyspnoea: 1 n (%)
  TEAE: Dysuria: 0 n (%)
  TEAE: Ear and labyrinth disorders: 0 n (%)
  TEAE: Ear discomfort: 0 n (%)
  TEAE: Ecchymosis: 0 n (%)
  TEAE: Electrocardiogram ST segment depression: 0 n (%)
  TEAE: Enteritis: 0 n (%)
  TEAE: Fatigue: 1 n (%)
  TEAE: Fungal infection: 0 n (%)
  TEAE: Gamma-glutamyltransferase increased: 0 n (%)
  TEAE: Gastrointestinal disorders: 10 n (%)
  TEAE: General disorders and administration site conditions: 2 n (%)
  TEAE: Glomerular filtration rate decreased: 4 n (%)
  TEAE: Gout: 1 n (%)
  TEAE: HIV antibody positive: 0 n (%)
  TEAE: HIV test positive: 0 n (%)
  TEAE: Haematuria: 1 n (%)
  TEAE: Haemoglobin decreased: 2 n (%)
  TEAE: Haemoglobin increased: 0 n (%)
  TEAE: Headache: 2 n (%)
  TEAE: Hepatic enzyme increased: 0 n (%)
  TEAE: Hepatitis C: 1 n (%)
  TEAE: Herpes simplex: 0 n (%)
  TEAE: Hyperglycaemia: 0 n (%)
  TEAE: Hyperhidrosis: 0 n (%)
  TEAE: Hyperkalaemia: 0 n (%)
  TEAE: Hyperproteinaemia: 1 n (%)
  TEAE: Hypertension: 0 n (%)
  TEAE: Hyperuricaemia: 0 n (%)
  TEAE: Hypokalaemia: 0 n (%)
  TEAE: Hyponatraemia: 1 n (%)
  TEAE: Hypophosphataemia: 2 n (%)
  TEAE: Hypothermia: 1 n (%)
  TEAE: Increased appetite: 0 n (%)
  TEAE: Infections and infestations: 5 n (%)
  TEAE: Injury, poisoning and procedural complications: 0 n (%)
  TEAE: Insomnia: 2 n (%)
  TEAE: Investigations: 8 n (%)
  TEAE: Irritability: 0 n (%)
  TEAE: Labyrinthitis: 0 n (%)
  TEAE: Leukopenia: 0 n (%)
  TEAE: Lymph node pain: 1 n (%)
  TEAE: Lymphadenopathy: 1 n (%)
  TEAE: Lymphopenia: 0 n (%)
  TEAE: Metabolism and nutrition disorders: 4 n (%)
  TEAE: Micturition urgency: 0 n (%)
  TEAE: Middle ear effusion: 0 n (%)
  TEAE: Migraine: 0 n (%)
  TEAE: Muscle spasms: 0 n (%)
  TEAE: Musculoskeletal and connective tissue disorders: 2 n (%)
  TEAE: Musculoskeletal chest pain: 1 n (%)
  TEAE: Myalgia: 0 n (%)
  TEAE: Myocarditis: 0 n (%)
  TEAE: Nasal congestion: 0 n (%)
  TEAE: Nausea: 3 n (%)
  TEAE: Nephropathy: 0 n (%)
  TEAE: Nervous system disorders: 4 n (%)
  TEAE: Neutropenia: 0 n (%)
  TEAE: Neutrophil count decreased: 1 n (%)
  TEAE: Oedema peripheral: 0 n (%)
  TEAE: Oral herpes: 0 n (%)
  TEAE: Otitis media: 0 n (%)
  TEAE: Paraesthesia: 1 n (%)
  TEAE: Percussion test abnormal: 1 n (%)
  TEAE: Petechiae: 0 n (%)
  TEAE: Pharyngitis streptococcal: 0 n (%)
  TEAE: Pneumonia chlamydial: 0 n (%)
  TEAE: Protein urine: 1 n (%)
  TEAE: Protein urine present: 0 n (%)
  TEAE: Proteinuria: 3 n (%)
  TEAE: Pruritus: 0 n (%)
  TEAE: Psychiatric disorders: 3 n (%)
  TEAE: Rash: 0 n (%)
  TEAE: Red blood cells urine: 1 n (%)
  TEAE: Renal and urinary disorders: 6 n (%)
  TEAE: Renal failure: 1 n (%)
  TEAE: Renal failure chronic: 1 n (%)
  TEAE: Renal impairment: 1 n (%)
  TEAE: Respiratory, thoracic and mediastinal disorders: 1 n (%)
  TEAE: Rhonchi: 1 n (%)
  TEAE: Sensation of foreign body: 0 n (%)
  TEAE: Sinus bradycardia: 0 n (%)
  TEAE: Sinus congestion: 0 n (%)
  TEAE: Sinus tachycardia: 1 n (%)
  TEAE: Sinusitis: 3 n (%)
  TEAE: Skin and subcutaneous tissue disorders: 0 n (%)
  TEAE: Sleep disorder: 0 n (%)
  TEAE: Sleep terror: 1 n (%)
  TEAE: Syncope: 1 n (%)
  TEAE: Tachycardia: 0 n (%)
  TEAE: Thrombocytopenia: 1 n (%)
  TEAE: Tinnitus: 0 n (%)
  TEAE: Tongue discolouration: 1 n (%)
  TEAE: Tremor: 0 n (%)
  TEAE: Upper respiratory tract infection: 0 n (%)
  TEAE: Urinary tract infection: 0 n (%)
  TEAE: Urine ketone body present: 1 n (%)
  TEAE: Vascular disorders: 0 n (%)
  TEAE: Vertigo: 0 n (%)
  TEAE: Vomiting: 1 n (%)
  TEAE: Wheezing: 1 n (%)
  TEAE: White blood cell count decreased: 0 n (%)
  Worst grade 1 or 2 TEAE: 30
  Worst grade 3 TEAE: 2
  Worst grade 3 or 4 TEAE: 2
  Worst grade 4 TEAE: 0
600 mg
  Any Serious TEAE: 1 (1.4%)
  Any Serious TEAE at least possibly related to study medication: 0
  Any Severe (Grade 3) TEAE: 5 (6.8%)
